Test results taken from PubChem BioAssay AID248 (DTP/NCI, 2004).
Values joined by “and” are separate entries in the source; they are usually repeats but may differ in a detail not shown here. Identical values can stand only once. Toxic doses and inconclusive results are not listed. Rule as the data show it: active = T/C of 150% or more; inactive = T/C below 125%.

System: L1210 leukemia ip in BDF1 mice, survival T/C
Assay: NCI In Vivo Anticancer Drug Screen. Data for tumor model L1210 Leukemia (intraperitoneal) in B6D2F1 (BDF1) mice
Conditions: endpoint: mean survival time, higher = longer survival
Method in brief: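 Transplanted-tumor mice were given test agent; controls received vehicle only. Survival readings from the two groups were divided (treated over control).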

[1] = dose: 100.0 mg/kg/injection, schedule: Q01DX001 (ip), vehicle: saline
[2] = dose: 200.0 mg/kg/injection, schedule: Q01DX001 (ip), vehicle: saline
[3] = dose: 50.0 mg/kg/injection, schedule: Q01DX009 (ip), vehicle: saline with Tween-80
[4] = dose: 50.0 mg/kg/injection, schedule: Q04DX003 (ip), vehicle: saline with Tween-80
[5] = dose: 100.0 mg/kg/injection, schedule: Q01DX009 (ip), vehicle: saline with Tween-80
[6] = dose: 100.0 mg/kg/injection, schedule: Q04DX003 (ip), vehicle: saline with Tween-80
[7] = dose: 200.0 mg/kg/injection, schedule: Q01DX009 (ip), vehicle: saline with Tween-80
[8] = dose: 200.0 mg/kg/injection, schedule: Q04DX003 (ip), vehicle: saline with Tween-80
[9] = dose: 100.0 mg/kg/injection, schedule: Q01DX001 (ip), vehicle: carboxymethylcellulose (CMC)
[10] = dose: 200.0 mg/kg/injection, schedule: Q01DX001 (ip), vehicle: carboxymethylcellulose (CMC)
[11] = dose: 400.0 mg/kg/injection, schedule: Q01DX001 (ip), vehicle: carboxymethylcellulose (CMC)
[12] = dose: 400.0 mg/kg/injection, schedule: Q04DX003 (ip), vehicle: saline with Tween-80
[13] = dose: 100.0 mg/kg/injection, schedule: Q01DX009 (ip), vehicle: Klucel (hydroxypropylcellulose) (HPC)
[14] = dose: 200.0 mg/kg/injection, schedule: Q01DX009 (ip), vehicle: Klucel (hydroxypropylcellulose) (HPC)
[15] = dose: 400.0 mg/kg/injection, schedule: Q01DX009 (ip), vehicle: Klucel (hydroxypropylcellulose) (HPC)
[16] = dose: 100.0 mg/kg/injection, schedule: Q04DX003 (ip), vehicle: Klucel (hydroxypropylcellulose) (HPC)
[17] = dose: 200.0 mg/kg/injection, schedule: Q04DX003 (ip), vehicle: Klucel (hydroxypropylcellulose) (HPC)
[18] = dose: 400.0 mg/kg/injection, schedule: Q04DX003 (ip), vehicle: Klucel (hydroxypropylcellulose) (HPC)
[19] = dose: 400.0 mg/kg/injection, schedule: Q01DX009 (ip), vehicle: saline with Tween-80

Measured: T/C

O=[N+]([O-])c1ccc(/C=N/c2oc(-c3ccc([N+](=O)[O-])cc3)nc2Sc2ccccc2)cc1
inactive: dose: 25.0 mg/kg/injection, schedule: Q04DX002 (ip), vehicle: Klucel (hydroxypropylcellulose) (HPC) 106 % of control | dose: 200.0 mg/kg/injection, schedule: Q04DX002 (ip), vehicle: Klucel (hydroxypropylcellulose) (HPC) 96 % of control and 97 % of control and 92 % of control | dose: 400.0 mg/kg/injection, schedule: Q04DX002 (ip), vehicle: Klucel (hydroxypropylcellulose) (HPC) 96 % of control

COc1cc(CC(=O)N(C)C)c([N+](=O)[O-])cc1OC
inactive: [1] 87 % of control | [2] 93 % of control | dose: 400.0 mg/kg/injection, schedule: Q01DX001 (ip), vehicle: saline 93 % of control

[O-][N+](=Nc1cccc(Cl)c1)c1cccc(Cl)c1
inactive: [3] 97 % of control | [4] 102 % of control | [5] 101 % of control | [6] 98 % of control | [7] 97 % of control | [8] 112 % of control

COc1ccc(Cl)cc1CC=O
inactive: [9] 118 % of control | [10] 118 % of control | [11] 114 % of control

CN1CCN(C(CO)Cc2ccccc2)CC1 (stereo unspecified)
inactive: [1] 98 % of control | [2] 104 % of control

CC1(C)SC2C(NC(=O)COc3ccccc3)C(=O)N2C1C(=O)O (stereo unspecified) (tested in a mixture with another compound)
inactive: [6] 101 % of control | [8] 103 % of control | [12] 97 % of control

O=C(Nc1ccccc1C(F)(F)F)OCCOc1ccc(Cl)cc1
inactive: [13] 98 % of control | [14] 91 % of control | [15] 87 % of control

CCCCCCCC(=O)Nc1cccc(O)c1
inactive: [6] 96 % of control | [8] 95 % of control | [12] 96 % of control

CCOC(=O)C[n+]1cccc(Br)c1
inactive: [9] 91 % of control | [10] 104 % of control | [11] 104 % of control

C1C[S+]2CCN1CC2
inactive: dose: 50.0 mg/kg/injection, schedule: Q01DX001 (ip), vehicle: saline 95 % of control

CCOC(=O)CCC(NC(=O)Cc1ccc(NC(=O)C(F)(F)F)cc1)C(=O)OCC (stereo unspecified)
inactive: [13] 105 % of control | [14] 96 % of control | [15] 98 % of control

[O-][n+]1c2ccccc2nc2cc(Cl)ccc21
inactive: [16] 107 % of control | [17] 100 % of control | [18] 96 % of control

CCCCCC(O)C(CO)CCCC (stereo unspecified)
inactive: [5] 100 % of control | [7] 95 % of control | [19] 94 % of control

O=C(O)C1CCC(CC23CC4CC(CC(C4)C2)C3)CC1 (stereo unspecified)
inactive: [13] 108 % of control | [16] 103 % of control | [14] 103 % of control | [17] 105 % of control | [15] 109 % of control | [18] 101 % of control

CCCCCCCCCCCCCCCCCC[n+]1ccc(C(N)=O)cc1
inactive: dose: 100.0 mg/kg/injection, schedule: Q04DX003 (ip), vehicle: saline 91 % of control

OC(c1ccc(Cl)cc1)(c1ccc(Cl)cc1)C(F)(F)F
inactive: dose: 100.0 mg/kg/injection, schedule: Q01DX009 (sc), vehicle: olive oil, sesame oil, peanut oil 113 % of control | dose: 100.0 mg/kg/injection, schedule: Q04DX003 (sc), vehicle: olive oil, sesame oil, peanut oil 100 % of control | dose: 200.0 mg/kg/injection, schedule: Q01DX009 (sc), vehicle: olive oil, sesame oil, peanut oil 101 % of control | dose: 200.0 mg/kg/injection, schedule: Q04DX003 (sc), vehicle: olive oil, sesame oil, peanut oil 97 % of control | dose: 400.0 mg/kg/injection, schedule: Q04DX003 (sc), vehicle: olive oil, sesame oil, peanut oil 113 % of control

O=C(/C=C/c1ccc(Cl)c(Cl)c1)C1CCC2CCCCC2C1 (stereo unspecified)
inactive: [5] 90 % of control | dose: 100.0 mg/kg/injection, schedule: Q04DX002 (ip), vehicle: saline with Tween-80 105 % of control | [7] 93 % of control | dose: 200.0 mg/kg/injection, schedule: Q04DX002 (ip), vehicle: saline with Tween-80 101 % of control | [19] 90 % of control | dose: 400.0 mg/kg/injection, schedule: Q04DX002 (ip), vehicle: saline with Tween-80 90 % of control

CN(C)C(=S)SCC(=O)[O][Sn]([c]1ccccc1)([c]1ccccc1)[c]1ccccc1
inactive: dose: 6.25 mg/kg/injection, schedule: Q04DX002 (ip), vehicle: saline with Tween-80 96 % of control | dose: 12.5 mg/kg/injection, schedule: Q04DX002 (ip), vehicle: saline with Tween-80 93 % of control | dose: 25.0 mg/kg/injection, schedule: Q04DX002 (ip), vehicle: saline with Tween-80 104 % of control

CC(C)/C=N\NC(=O)c1ccc[n+](C)c1
inactive: [3] 100 % of control | [5] 92 % of control

NC(=S)N/N=C/c1ccc([N+](=O)[O-])s1
inactive: dose: 12.5 mg/kg/injection, schedule: Q01DX005 (ip), vehicle: water 102 % of control | dose: 25.0 mg/kg/injection, schedule: Q01DX005 (ip), vehicle: water 98 % of control | dose: 50.0 mg/kg/injection, schedule: Q01DX005 (ip), vehicle: water 93 % of control | [4] 103 % of control | dose: 100.0 mg/kg/injection, schedule: Q01DX005 (ip), vehicle: water 100 % of control | [6] 104 % of control | dose: 100.0 mg/kg/injection, schedule: Q04DX003 (ip), vehicle: water 88 % of control | dose: 200.0 mg/kg/injection, schedule: Q01DX005 (ip), vehicle: water 94 % of control | [8] 100 % of control | dose: 200.0 mg/kg/injection, schedule: Q04DX003 (ip), vehicle: water 91 % of control

CC1CN(c2nc3ccccc3o2)C(C)CN1c1nc2ccccc2o1 (stereo unspecified)
inactive: [9] 96 % of control | [10] 94 % of control | [11] 89 % of control

COP(=O)(OC)/C(=N\NS(=O)(=O)c1ccc(C)cc1)c1ccccc1
inactive: [16] 94 % of control | [17] 101 % of control | [18] 94 % of control

C[CH2][Sn]([c]1ccccc1)([c]1ccccc1)[c]1ccccc1
inactive: dose: 12.5 mg/kg/injection, schedule: Q01DX009 (ip), vehicle: saline with Tween-80 97 % of control | dose: 25.0 mg/kg/injection, schedule: Q01DX009 (ip), vehicle: saline with Tween-80 99 % of control | [3] 99 % of control

CCCCCCc1cc(N=Nc2ccc(S(=O)(=O)Nc3occ(C)c3C)cc2)c(O)cc1O
inactive: [9] 93 % of control | [10] 93 % of control | [11] 98 % of control

Cc1ccc(C[P+](c2ccccc2)(c2ccccc2)c2ccccc2)cc1
inactive: dose: 2.0 mg/kg/injection, schedule: Q01DX015 (ip), vehicle: saline 97 % of control | dose: 4.0 mg/kg/injection, schedule: Q01DX015 (ip), vehicle: saline 100 % of control | dose: 5.0 mg/kg/injection, schedule: Q01DX001 (ip), vehicle: saline 102 % of control | dose: 8.0 mg/kg/injection, schedule: Q01DX015 (ip), vehicle: saline 100 % of control | dose: 10.0 mg/kg/injection, schedule: Q01DX001 (ip), vehicle: saline 104 % of control | dose: 20.0 mg/kg/injection, schedule: Q01DX001 (ip), vehicle: saline 93 % of control | dose: 40.0 mg/kg/injection, schedule: Q01DX001 (ip), vehicle: saline 96 % of control
